Source: US9120762B2, “Salts of bicyclo-substituted pyrazolon azo derivatives, preparation method and use thereof” (Jiangsu Hengrui Medicine Co., Ltd., priority 2009, dated 2015)
Values after ≈ are worked out from the molar mass of the structure shown.

Legend:
[1] = Hygroscopicity assay, standing 48 hours at 25° C., humidity 79%; assay type: physicochemical; conditions: 48 hours, 25° C., humidity 79%
Method: The hygroscopicity test of the compounds of the present disclosure after standing for 48 hours
1. The arid glass weighing bottle with a tap (external diameter is 50 mm, the height is 15 mm) was placed at 25° C.±1° C. suitably in a thermostatic drier (saturated ammonium sulfate solution was laid in the lower part, humidity was 79%) the day before the assay, precise weight was measured as (m1);
2. The above weighing bottle was covered with the compounds of the invention (about 1 g), and the thickness of the compounds were generally 1 mm, precise weight was measured as (m2);
3. The mouth of the weighing bottle was kept open and placed with the tap in the above conditions with constant temperature and humidity for 48 hours;
4. Put the tap back on the bottle, precise weight was measured as (m3)
The degree of hygroscopicity was defined as follows: […]
Deliquesce: turning into liquid by absorbing enough moisture.
High hygroscopicity: the percentage of hygroscopicity weight gain is not less than 15%.
Hygroscopicity: the percentage of hygroscopicity weight gain is less than 15%, but not less than 2%.
Sparing hygroscopicity: the percentage of hygroscopicity weight gain is less than 2%, but not less than 0.2%.
No hygroscopicity or almost no hygroscopicity: the percentage of hygroscopicity weight gain is less than 0.2%.

[2] = target: T1, human TPOR (Homo sapiens, UniProt P40238); assay: Proliferation effect on BAF3-TPOR cell (CCK-8); assay type: cell-based; conditions: rate relative to rhTPO positive control
T1 construct: host or cells: BaF3 (murine pro-B cells), stably transfected, G418-selected
T1 sequence (P40238 26-635): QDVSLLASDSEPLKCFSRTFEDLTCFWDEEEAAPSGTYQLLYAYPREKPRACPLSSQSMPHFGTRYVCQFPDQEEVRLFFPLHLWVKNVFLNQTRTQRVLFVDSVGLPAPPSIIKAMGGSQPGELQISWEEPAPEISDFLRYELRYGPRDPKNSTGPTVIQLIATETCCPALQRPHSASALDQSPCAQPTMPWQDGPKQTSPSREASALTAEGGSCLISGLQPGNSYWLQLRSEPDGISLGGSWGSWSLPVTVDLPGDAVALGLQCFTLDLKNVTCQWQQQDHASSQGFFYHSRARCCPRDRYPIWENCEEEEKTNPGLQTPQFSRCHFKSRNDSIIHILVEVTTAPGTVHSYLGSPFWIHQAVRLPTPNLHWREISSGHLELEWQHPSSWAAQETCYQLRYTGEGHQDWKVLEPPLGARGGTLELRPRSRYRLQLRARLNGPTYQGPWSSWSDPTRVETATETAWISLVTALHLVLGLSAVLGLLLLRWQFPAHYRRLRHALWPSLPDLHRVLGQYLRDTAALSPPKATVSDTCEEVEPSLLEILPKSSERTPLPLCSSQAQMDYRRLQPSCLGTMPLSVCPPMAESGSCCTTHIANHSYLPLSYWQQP
Method: (1) Plasmid constructs: based on the TPO receptor (TPOR) sequence information from Entrez (Gene ID: 4325, Refseq: NM_005373), dual-site mutation was performed on EX-B0010-M02 plasmid by using QuikChange® Multi Site Directed Mutagenesis Kit (Stratagene). The sequence of primers containing multi-sites mutation was designed as follows: […]
The E. coli DH5α competent cells were transformed with mutated plasmid, and positive colonies were picked up through ampicillin selection. The mutation result was confirmed by sequence analysis.
(2) BAF3-TPOR stable transfected cell line: the following method was used to construct the BaF3 cell which stably over-expressed functional human TPOR. The successfully mutated EX-B0010-M02 plasmid ([…]) which expressed human TPOR and screening gene neomycin was transfected into wild-type BaF3 cells (1×10^7) by electroporation at 250V for 18 ms using an electric pulse generator (Electro Square Porator ECM830, BTX Division of Genetronic, Inc. US). The stable transfected cells BAF3-TPOR were selected with G418 (Gibco, US), then incubated in RPMI1640 medium plus 10% FBS (Gibco, US), […] G418, 5 ng/mL, rmIL-3 (Chemicon, US).
(1) Washing cells by centrifugation: a suitable amount of cell suspension was centrifuged at 1000 rpm for 5 minutes, and the supernatant was discarded. 10 mL of cell culture media without IL-3 was added. Then the resulting cell suspension was centrifuged at 1000 rpm for 5 minutes, and the supernatant was discarded.
(2) 1 mL of cell culture media without IL-3 was added to beat upon them to equality, and the number of a suitable amount of cell suspension was counted after dilution.
(3) According to the result of the cell counting, a cell suspension in a concentration of 100,000 cell/mL was prepared.
(4) 100 μL of cell suspension was transferred to each well of 96-well culture plate, and there were 3 parallel wells, that is, there were a blank control group (B), a negative control group (N), a positive control group of TPO (P) and a test compound group (S).
(5) The test compound was dissolved in DMSO to prepare a 10 mM stock solution, and then the solution was diluted with RPMI 1640 medium into a series of test samples at different concentration: 30 μM, 10 μM, 3 μM, 1 μM, 0.3 μM, 0.1 μM, 0.03 μM, 0.01 μM, 0.003 μM, 0.001 μM.
(6) 10 μL of test compound solution was transferred to each well respectively; 1 μL of rhTPO (10 ng/mL) was added to positive control well.
(7) The plates were incubated in an incubator at 5% CO2 and 37° C. for 24 hours.
(8) After incubation, 10 μL of CCK-8 solution was added to each well and the plates were incubated in the incubator for another 24 hours.
(9) OD value was detected at 450 nm by VICTORS (Perkin Elmer 1420-120) plate reader.
(1) The proliferation rate was calculated as follows: Rate=[(S−B)/(P−B)]*100%
S: OD value of wells which contain test compound.
B: OD value of blank control wells
P: OD value of positive control wells
(2) The EC50 value was calculated by Origin 7.0 software.

[3] = Pharmacokinetics assay in rats; assay type: in vivo, SD rats; conditions: SD rats, intragastric, 50 mg/Kg (as free acid); 50 mg/kg
Outline: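 SD rats, half male and half female, dosed intragastrically with compound suspended at 5 mg/mL (as free acid) in 1% sodium carboxymethyl cellulose; fed 2 h post-dose. Plasma concentrations over time were measured by HPLC-UV. Parameters came from a compartmental fit, with Cmax and tmax as observed values.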

[4] = Pharmacokinetics assay in Beagle dogs; assay type: in vivo; conditions: intragastric, 5 mg/kg (as free acid), 5 mg/kg
Method: The pharmacokinetic behavior of the compounds of the present disclosure was studied and evaluated in Beagle dogs.
12 Healthy adult Beagles dogs, male, were purchased from Suzhou Xishan Drug Research and Development Colo., LTD. License number: SCXK (Suzhou) 2007-0005.
The test compound was diluted with 0.5% sodium carboxymethyl cellulose to 2.5 mg/mL (calculated as the free acid form) of suspension before use.
12 Healthy adult Beagles dogs, male, were divided into 4 groups. After an overnight fast, the dogs were administered intragastrically at a dose of 5.0 mg/kg (calculated as the free acid form), at a volume of 2 mL/kg.
Blood samples (1.2 mL) were taken from vein of forelegs at pre administration and at 0.25, 0.5, 1.0, 1.5, 2.0, 3.0, 5.0, 6.0, 8.0, 12.0, 14.0, 24.0 and 48.0 hours post administration, which were stored in heparinized tubes and centrifuged for 10 minutes at 3,500 rpm. The plasma samples were stored at −20° C. until analysis. The Beagles dogs were fed 2 hours after administration.
50 μL of Beagles dog plasma, obtained at various time points after administration, 20 μL of internal standard solution and 150 μL of methanol was added to result in protein precipitation. Then the mixture was mixed for 1 minute using a vortexer and centrifuged for 5 minutes at 11,000 rpm. 50 μL of the supernatant was analyzed by HPLC-UV.
The compartmental model of pharmacokinetics was fitted for the test compounds and the major pharmacokinetic parameters were calculated in which Cmax and tmax were the actually measured values.

[5] = Solubility assay in water, 0.1% hydrochloric acid and methanol; assay type: physicochemical
Outline: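 Solubility was classed by the solvent volume needed to dissolve 1 g (mL) of solute, from "very soluble" (<1 mL) to "practically insoluble" (not fully dissolved in 10000 mL).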

solubility ([5]; 0.1% hydrochloric acid) [µg/mL] | solubility ([5]; methanol) [µg/mL] | solubility ([5]; water) [µg/mL] | Mean Residence Time MRT [3] [h] | Structure (SMILES) | Percentage of weight gain [1] [%] | hygroscopicity [1] | EC50 [2] [nM] | Area Under Curve AUC [3] [µg·h/mL] | Clearance CL/F [3] [mL/min/kg] | Half-Life t½ [3] [h] | Plasma Conc. Cmax [3] [ng/mL] | Time to peak Tmax [3] [h] | Area Under Curve AUC [4] [µg·h/mL] | Clearance CL/F [4] [mL/min/kg] | Half-Life t1/2 [4] [h] | Plasma Conc. Cmax [4] [ng/mL] | Time to peak Tmax [4] [h]
– | – | – | – | CC1=NN(c2ccc3c(c2)CCCC3)C(=O)/C1=N\Nc1cccc(-c2ccc(C(=O)O)o2)c1O [Example 10] | 15.7 | High hygroscopicity (the percentage of hygroscopicity weight gain is not less than 15%) | 16 | 381 ± 306 | 8.23 ± 12.6 | 12.9 ± 6.32 | 65600 ± 44500 | 1.63 ± 0.75 | 9.76 | 10.1 | 8.07 | 810 | 0.7
– | – | – | – | CC1=NN(c2ccc3c(c2)CCCC3)C(=O)/C1=N\Nc1cccc(-c2ccc(C(=O)O)o2)c1O [Example 23, (Z)-5-(2-hydroxy-3-{N′-[3-methyl-5-oxo-1-(5,6,7,8-tetrahydro-naphthalen-2-yl)-1,5-dihydro-pyrazol-4-ylidene]-hydrazino}-phenyl)-furan-2-carboxylic acid choline] | 8.48 | Hygroscopicity (the percentage of hygroscopicity weight gain is less than 15%, but not less than 2%) | 43 | 123 ± 89.5 | 8.78 ± 4 | 7.61 ± 1.34 | 17200 ± 12300 | 3.25 ± 3.18 | – | – | – | – | –
<1 | 3009 (≈ 6370 µM) | 1 (≈ 2.12 µM) | 60.4 ± 90.2 | CC1=NN(c2ccc3c(c2)C(C)(C)CC3)C(=O)/C1=N\Nc1cccc(-c2ccc(C(=O)O)o2)c1O [Example 6, (Z)-5-(3-{N′-[1-(3,3-dimethyl-indan-5-yl)-3-methyl-5-oxo-1,5-dihydro-pyrazol-4-ylidene]-hydrazino}-2-hydroxy-phenyl)-furan-2-carboxylic acid bis-(piperazine)] | – | – | 36 | 175 ± 41 | 5 ± 1.4 | 45.0 ± 70.3 | 13000 ± 6500 | 2.5 ± 1.0 | – | – | – | – | –
